We go through two compounds from patent publication US11547709B2, “Methods of treating disorders associated with castor” (ST. JUDE CHILDREN'S RESEARCH HOSPITAL, INC., priority 2017, dated 2023).

SMILES strings stand for the structures.

Assay type in all cases: in vivo
For assay [1], the system named is Pcca−/−(A138T) mouse model of propionic acidemia. Put plainly: Blood ammonia levels in mouse model of propionic acidemia. The settings on record: chow with 225 ppm PZ-2891 plus 1000 ppm Pan for 7 days vs 1000 ppm Pan alone; p=0.0032. The procedure: Referring to FIG. 2, a mouse model of propionic acidemia, the Pcca−/−(A138T) (Guensel et al. (2013) Mol. Ther. 21: 1316-1323), was fed chow containing either 1000 ppm pantothenate (Pan) or 225 ppm PZ-2891 plus 1000 ppm Pan for 7 days. Blood was drawn from 6 mice per group and blood ammonia levels were determined using a GM7 Micro-Stat Analyser (Analox Instruments, www.analox.com) and the Analox Blood Ammonia Reagent kit according to the manufacturer's instructions. Statistical analysis was performed using the Students unpaired t-test and p=0.0032.

Assay [2] shares this test system. The experiment in a line: Plasma acyl-carnitine levels in Pcca mouse model. The settings on record: chow with 1000 ppm pantothenate plus 75 ppm PZ-3022 from day 21, plasma at 70 days. The method, then:
Referring to FIG. 6A and FIG. 6B, a mouse model of propionic acidemia, the Pcca−/−(A138T) (mouse Guensel et al. (2013) Mol. Ther. 21: 1316-23) was fed chow or chow containing 1000 ppm pantothenate plus 75 ppm PZ-3022 beginning at day 21. At 70 days, the plasma was analyzed for the levels of acyl-carnitines.
Referring to FIG. 7, the data in FIG. 5 are presented as the C3:C2 ration of plasma carnitines.

For assay [3] the test system is unchanged. The experiment in a line: Liver CoA, acetyl-CoA and propionyl-CoA levels in Pcca mouse model. The settings on record: chow with 1000 ppm pantothenate plus 75 ppm PZ-3022 from day 21, measured at 70 days. The method, then: Referring to FIG. 5, a mouse model of propionic acidemia, the Pcca−/−(A138T) (mouse Guensel et al. (2013) Mol. Ther. 21: 1316-23) was fed chow or chow containing 1000 ppm pantothenate plus 75 ppm PZ-3022 beginning at day 21. At 70 days, the liver CoA, acetyl-CoA and propionyl-CoA levels were measured. The Pcca mice had lower free CoA, lower acetyl-CoA and very elevated propionyl-CoA compared to wild-type.

The test system is the same in assay [4]. Put plainly: Total liver CoA levels in Pcca mouse model. The settings on record: chow with 1000 ppm pantothenate plus 75 ppm PZ-3022 from day 21, measured at 70 days. The procedure: Referring to FIG. 4, a mouse model of propionic acidemia, the Pcca−/−(A138T) mouse (Guensel et al. (2013) Mol. Ther. 21: 1316-23) was fed chow or chow containing 1000 ppm pantothenate plus 75 ppm PZ-3022 beginning at day 21. At 70 days, the liver CoA levels were measured.

Regarding `CC(C)c1ccc(CC(=O)N2CCN(c3ccc(C#N)nn3)CC2)cc1` [PZ-2891], the blood ammonia levels result in assay [1] is “Reduction of Blood Ammonia Levels”.

Consider `N#Cc1ccc(N2CCN(C(=O)Cc3ccc(C4CC4)cc3)CC2)nn1` [PZ-3022], for which, in assay [2], the “C3:C2 ratio of plasma carnitines” value is listed as “reduced the highly elevated C3:C2 ratio” and the plasma acetyl-carnitine entry was “elevated acetyl-carnitine”. In addition, in assay [3], the “liver acetyl-CoA” value was “elevated free CoA and acetyl-CoA”; the “liver free CoA” value is recorded as “elevated free CoA”; the “liver propionyl-CoA” value was “propionyl-CoA was reduced”. In assay [4], the “liver CoA levels (total)” value was “the CoA levels were elevated”.
